# From article PMC12073402, “A Selective MAP3K1 Inhibitor Facilitates Discovery of NPM1 as a Member of the Network” (Molecules, 2025)
# Experiments:
# Assay in all cases: KiNativ kinome profiling in PANC-1 lysate
# Type in all cases: binding
# CDK7 = molecular target: T1, CDK7 (Homo sapiens, UniProt P50613)
# T1 construct: endogenous in cells; host or cells: PANC-1 cell lysate
# From the text: (§1) To assess target engagement and selectivity, we opted to conduct a kinome screen (KiNativ) in PANC-1 cell lysates. This chemical proteomics (chemoproteomics) methodology allows for the evaluation of small-molecule binding to protein kinases in native systems such as cell lysates. KiNativ utilizes a soluble chemical probe comprising ATP linked to biotin through an acyl-phosphate bond. The probe covalently modifies conserved lysine residues found in the ATP binding site of essentially all protein kinases (Figure 2A). To profile a kinase inhibitor, cell lysates are treated with a vehicle control or inhibitor prior to addition of the desthiobiotin ATP probe. The ATP probe occupies the ATP binding site in the kinase, which enables the conserved lysines to be biotinylated. […] The cell lysates are digested with a protease (trypsin), biotinylated peptides are affinity-enriched on streptavidin beads, and the labeled peptides are analyzed by liquid chromatography–tandem MS (Figure 2B). If an inhibitor binds to a kinase, it competes with the ATP, thus resulting in a loss of that kinase-associated peptide signal, allowing for the quantitative measurement of inhibitor binding. Unlike recombinant enzyme assays, KiNativ IC50 values are a direct measure of active site binding instead of enzymatic activity.
# (§2) Kinome profiling quantified the activity of 51-106 against >300 kinases in the PANC-1 cells. The results summarized in Figure 2C are the average of duplicate control and duplicate treated samples with 5 μM of 51-106 or DMSO.
# (§3) KiNativ assay with 51-106.
# (§4) ATP Loop: ATP binding loop
# (§5) Activation Loop: Activation loop
# (§6) ATP: ATP site in non-canonical kinase (e.g. lipid kinase)
# (§7) Protein Kinase Domain: Other lysine within kinase domain, possibly not in ATP binding site
# (§8) Other: Labeling of residue outside of the protein kinase domain, possibly not in ATP binding site
# (§9) No change. NB = No Binding (≤ 0)
# (§10) >100% increase in MS signal (>2 fold increase)
# (§11) Data points inhibited […] & not considered significant are left uncolored
# (§12) Note: This KiNativ dataset is the result of an analysis of duplicate treated samples and control samples.
# (§13) The % changes in MS signals being reported are statistically significant (Student T -test score < 0.04)
# CK1a = molecular target: T2, CK1a (Homo sapiens, UniProt P48729); settings: Lys2
# T2 construct: endogenous in cells; host or cells: PANC-1 cell lysate
# From the text: as §1, §2, §3, §4, §5, §6, §7, §8, §9, §10, §11, §12, §13
# CK1g3 = molecular target: T3, CK1g3 (Homo sapiens, UniProt Q9Y6M4); settings: Lys2
# T3 construct: endogenous in cells; host or cells: PANC-1 cell lysate
# From the text: as §1, §2, §3, §4, §5, §6, §7, §8, §9, §10, §11, §12, §13
# DNAPK = molecular target: T4, DNAPK (Homo sapiens, UniProt P78527); settings: ATP
# T4 construct: endogenous in cells; host or cells: PANC-1 lysate
# From the text: as §1, §2, §3, §4, §5, §6, §7, §8, §9, §10, §11, §12, §13
# DRAK1 = molecular target: T5, DRAK1 (Homo sapiens, UniProt Q9UEE5); settings: Lys2
# T5 construct: endogenous in cells; host or cells: PANC-1 lysate
# From the text: as §1, §2, §3, §4, §5, §6, §7, §8, §9, §10, §11, §12, §13
# EphB2 = molecular target: T6, EphB2 (Homo sapiens, UniProt P29323); settings: ATP Loop
# T6 construct: endogenous in cells; host or cells: PANC-1 lysate
# From the text: as §1, §2, §3, §4, §5, §6, §7, §8, §9, §10, §11, §12, §13
# FAK = molecular target: T7, FAK (Homo sapiens, UniProt Q05397)
# T7 construct: endogenous in cells; host or cells: PANC-1 lysate
# From the text: as §1, §2, §3, §4, §5, §6, §7, §8, §9, §10, §11, §12, §13
# GSK3A = molecular target: T8, GSK3A (Homo sapiens, UniProt P49840); settings: Lys2
# T8 construct: we opted to conduct a kinome screen (KiNativ) in PANC-1 cell lysates; endogenous in cells; host or cells: PANC-1 cell lysate
# From the text: as §1, §2, §3, §4, §5, §6, §7, §8, §9, §10, §11, §12, §13
# HER2/ErbB2 = molecular target: T9, HER2/ErbB2 (Homo sapiens, UniProt P04626)
# T9 construct: we opted to conduct a kinome screen (KiNativ) in PANC-1 cell lysates; endogenous in cells; host or cells: PANC-1 cell lysate
# From the text: as §1, §2, §3, §4, §5, §6, §7, §8, §9, §10, §11, §12, §13
# IKKe, TBK1 = settings: 5 µM; Lys2; DIKPGNIMR
# From the text: as §1, §2, §3, §4, §5, §6, §7, §8, §9, §10, §11, §12, §13
# ILK = molecular target: T10, ILK (Homo sapiens, UniProt Q13418)
# T10 construct: we opted to conduct a kinome screen (KiNativ) in PANC-1 cell lysates; endogenous in cells; host or cells: PANC-1 cell lysate
# From the text: as §1, §2, §3, §4, §5, §6, §7, §8, §9, §10, §11, §12, §13
# MAP2K5 = molecular target: T11, MAP2K5 (Homo sapiens, UniProt Q13163); settings: Lys2
# T11 construct: endogenous in cells; host or cells: PANC-1 cell lysate
# From the text: as §1, §2, §3, §4, §5, §6, §7, §8, §9, §10, §11, §12, §13
# MAP3K5 = molecular target: T12, MAP3K5 (Homo sapiens, UniProt Q99683); settings: Lys2
# T12 construct: endogenous in cells; host or cells: PANC-1 cell lysate
# From the text: as §1, §2, §3, §4, §5, §6, §7, §8, §9, §10, §11, §12, §13
# MAST3 = molecular target: T13, MAST3 (Homo sapiens, UniProt O60307); settings: Lys2
# T13 construct: endogenous in cells; host or cells: PANC-1
# From the text: as §1, §2, §3, §4, §5, §6, §7, §8, §9, §10, §11, §12, §13
# NEK4 = molecular target: T14, NEK4 (Homo sapiens, UniProt P51957); settings: Lys2
# T14 construct: endogenous in cells; host or cells: PANC-1 cell lysate
# From the text: as §1, §2, §3, §4, §5, §6, §7, §8, §9, §10, §11, §12, §13
# NLK = molecular target: T15, NLK (Homo sapiens, UniProt Q9UBE8); settings: Lys2
# T15 construct: endogenous in cells; host or cells: PANC-1 cell lysate
# From the text: as §1, §2, §3, §4, §5, §6, §7, §8, §9, §10, §11, §12, §13
# NuaK2 = molecular target: T16, NuaK2 (Homo sapiens, UniProt Q9H093); settings: Lys1
# T16 construct: endogenous in cells; host or cells: PANC-1 cell lysate
# From the text: as §1, §2, §3, §4, §5, §6, §7, §8, §9, §10, §11, §12, §13
# PCTAIRE1 = molecular target: T17, PCTAIRE1 (Homo sapiens, UniProt Q00536); settings: Lys1
# T17 construct: endogenous in cells; host or cells: PANC-1 cell lysate
# From the text: as §1, §2, §3, §4, §5, §6, §7, §8, §9, §10, §11, §12, §13
# PCTAIRE2 = molecular target: T18, PCTAIRE2 (Homo sapiens, UniProt Q00537); settings: Lys2
# T18 construct: endogenous in cells; host or cells: PANC-1 cell lysate
# From the text: as §1, §2, §3, §4, §5, §6, §7, §8, §9, §10, §11, §12, §13
# PHKg2 = molecular target: T19, PHKg2 (Homo sapiens, UniProt P15735); settings: Lys1
# T19 construct: endogenous in cells; host or cells: PANC-1 cell lysate
# From the text: as §1, §2, §3, §4, §5, §6, §7, §8, §9, §10, §11, §12, §13
# PIK3C2B = molecular target: T20, PIK3C2B (Homo sapiens, UniProt O00750); settings: ATP
# T20 construct: endogenous in cells; host or cells: PANC-1 cell lysate
# From the text: as §1, §2, §3, §4, §5, §6, §7, §8, §9, §10, §11, §12, §13
# PKD1, PKD2 = settings: 5 µM; Lys2; NIVHCDLKPENVLLASADPFPQVK
# From the text: as §1, §2, §3, §4, §5, §6, §7, §8, §9, §10, §11, §12, §13
# PKR = molecular target: T21, PKR (Homo sapiens, UniProt P19525)
# T21 construct: endogenous in cells; host or cells: PANC-1 cell lysate
# From the text: as §1, §2, §3, §4, §5, §6, §7, §8, §9, §10, §11, §12, §13
# PRP4 = molecular target: T22, PRP4 (Homo sapiens, UniProt Q13523); settings: Lys2
# T22 construct: endogenous in cells; host or cells: PANC-1 cell lysate
# From the text: as §1, §2, §3, §4, §5, §6, §7, §8, §9, §10, §11, §12, §13
# RON = molecular target: T23, RON (Homo sapiens, UniProt Q04912); settings: Lys1
# T23 construct: endogenous in cells; host or cells: PANC-1 cell lysate
# From the text: as §1, §2, §3, §4, §5, §6, §7, §8, §9, §10, §11, §12, §13
# TLK2 = molecular target: T24, TLK2 (Homo sapiens, UniProt Q86UE8)
# T24 construct: endogenous in cells; host or cells: PANC-1 cell lysate
# From the text: as §1, §2, §3, §4, §5, §6, §7, §8, §9, §10, §11, §12, §13
# T9 sequence (P04626 23-1255): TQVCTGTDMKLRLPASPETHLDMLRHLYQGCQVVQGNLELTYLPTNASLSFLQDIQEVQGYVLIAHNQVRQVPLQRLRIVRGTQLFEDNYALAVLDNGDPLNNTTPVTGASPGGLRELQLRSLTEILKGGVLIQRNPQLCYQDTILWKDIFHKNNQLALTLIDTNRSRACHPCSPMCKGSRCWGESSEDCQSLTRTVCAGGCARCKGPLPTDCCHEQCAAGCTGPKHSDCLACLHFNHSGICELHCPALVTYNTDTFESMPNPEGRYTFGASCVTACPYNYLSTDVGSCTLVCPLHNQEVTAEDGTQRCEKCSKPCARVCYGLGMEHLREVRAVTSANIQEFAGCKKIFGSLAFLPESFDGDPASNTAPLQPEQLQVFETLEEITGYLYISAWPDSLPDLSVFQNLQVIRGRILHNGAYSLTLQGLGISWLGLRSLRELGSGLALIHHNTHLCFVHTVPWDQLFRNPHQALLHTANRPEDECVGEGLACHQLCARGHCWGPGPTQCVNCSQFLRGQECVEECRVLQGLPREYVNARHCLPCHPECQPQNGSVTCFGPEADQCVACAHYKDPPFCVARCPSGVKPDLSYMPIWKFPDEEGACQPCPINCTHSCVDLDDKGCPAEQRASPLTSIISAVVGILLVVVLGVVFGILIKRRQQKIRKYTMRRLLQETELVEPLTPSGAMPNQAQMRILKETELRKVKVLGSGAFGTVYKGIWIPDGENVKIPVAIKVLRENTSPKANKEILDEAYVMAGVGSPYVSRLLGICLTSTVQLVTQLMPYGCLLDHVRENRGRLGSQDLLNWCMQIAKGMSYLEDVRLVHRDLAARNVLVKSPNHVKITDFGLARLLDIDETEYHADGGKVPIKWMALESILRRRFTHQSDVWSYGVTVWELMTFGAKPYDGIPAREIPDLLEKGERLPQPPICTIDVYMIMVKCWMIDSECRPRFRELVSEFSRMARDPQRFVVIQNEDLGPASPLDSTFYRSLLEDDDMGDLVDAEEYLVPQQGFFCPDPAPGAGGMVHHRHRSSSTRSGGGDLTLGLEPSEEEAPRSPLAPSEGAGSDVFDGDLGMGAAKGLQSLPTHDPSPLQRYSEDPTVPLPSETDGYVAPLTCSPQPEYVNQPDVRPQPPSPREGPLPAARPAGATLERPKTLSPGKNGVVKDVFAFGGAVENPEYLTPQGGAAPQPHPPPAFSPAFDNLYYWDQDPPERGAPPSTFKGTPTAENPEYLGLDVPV
# T24 sequence (Q86UE8 whole entry): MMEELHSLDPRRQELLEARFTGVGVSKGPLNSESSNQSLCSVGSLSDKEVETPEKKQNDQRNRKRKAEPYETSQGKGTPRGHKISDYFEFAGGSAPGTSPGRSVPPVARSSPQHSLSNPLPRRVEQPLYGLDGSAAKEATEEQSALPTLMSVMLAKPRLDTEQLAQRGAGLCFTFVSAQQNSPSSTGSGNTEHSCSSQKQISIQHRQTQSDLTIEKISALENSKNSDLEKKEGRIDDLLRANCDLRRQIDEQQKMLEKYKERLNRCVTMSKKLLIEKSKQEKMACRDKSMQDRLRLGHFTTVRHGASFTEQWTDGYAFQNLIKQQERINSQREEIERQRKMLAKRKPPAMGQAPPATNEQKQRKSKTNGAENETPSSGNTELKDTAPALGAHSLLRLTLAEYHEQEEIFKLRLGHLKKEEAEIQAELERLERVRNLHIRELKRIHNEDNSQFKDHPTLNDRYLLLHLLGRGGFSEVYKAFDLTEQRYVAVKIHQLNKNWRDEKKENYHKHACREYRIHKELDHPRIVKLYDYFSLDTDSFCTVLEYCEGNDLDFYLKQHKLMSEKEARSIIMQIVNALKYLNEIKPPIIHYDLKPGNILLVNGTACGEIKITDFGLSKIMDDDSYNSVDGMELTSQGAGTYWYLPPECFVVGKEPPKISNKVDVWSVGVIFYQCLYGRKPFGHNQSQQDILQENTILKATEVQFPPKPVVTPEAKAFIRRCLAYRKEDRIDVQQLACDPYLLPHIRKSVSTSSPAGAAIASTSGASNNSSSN
# T21 sequence (P19525 whole entry): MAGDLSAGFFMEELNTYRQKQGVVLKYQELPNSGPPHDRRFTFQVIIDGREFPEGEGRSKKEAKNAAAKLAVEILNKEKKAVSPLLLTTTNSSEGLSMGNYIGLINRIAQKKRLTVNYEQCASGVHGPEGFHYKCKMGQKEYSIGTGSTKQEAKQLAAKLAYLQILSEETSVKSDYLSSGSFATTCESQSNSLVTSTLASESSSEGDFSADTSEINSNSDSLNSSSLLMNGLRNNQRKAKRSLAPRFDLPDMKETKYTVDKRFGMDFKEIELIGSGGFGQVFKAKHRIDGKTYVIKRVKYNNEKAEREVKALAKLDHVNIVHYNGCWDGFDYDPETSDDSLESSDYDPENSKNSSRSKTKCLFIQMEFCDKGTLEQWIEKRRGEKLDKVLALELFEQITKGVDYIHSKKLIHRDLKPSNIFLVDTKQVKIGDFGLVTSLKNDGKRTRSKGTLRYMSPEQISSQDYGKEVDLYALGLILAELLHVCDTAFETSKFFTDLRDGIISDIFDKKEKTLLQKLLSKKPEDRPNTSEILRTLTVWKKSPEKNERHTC
# T7 sequence (Q05397 whole entry): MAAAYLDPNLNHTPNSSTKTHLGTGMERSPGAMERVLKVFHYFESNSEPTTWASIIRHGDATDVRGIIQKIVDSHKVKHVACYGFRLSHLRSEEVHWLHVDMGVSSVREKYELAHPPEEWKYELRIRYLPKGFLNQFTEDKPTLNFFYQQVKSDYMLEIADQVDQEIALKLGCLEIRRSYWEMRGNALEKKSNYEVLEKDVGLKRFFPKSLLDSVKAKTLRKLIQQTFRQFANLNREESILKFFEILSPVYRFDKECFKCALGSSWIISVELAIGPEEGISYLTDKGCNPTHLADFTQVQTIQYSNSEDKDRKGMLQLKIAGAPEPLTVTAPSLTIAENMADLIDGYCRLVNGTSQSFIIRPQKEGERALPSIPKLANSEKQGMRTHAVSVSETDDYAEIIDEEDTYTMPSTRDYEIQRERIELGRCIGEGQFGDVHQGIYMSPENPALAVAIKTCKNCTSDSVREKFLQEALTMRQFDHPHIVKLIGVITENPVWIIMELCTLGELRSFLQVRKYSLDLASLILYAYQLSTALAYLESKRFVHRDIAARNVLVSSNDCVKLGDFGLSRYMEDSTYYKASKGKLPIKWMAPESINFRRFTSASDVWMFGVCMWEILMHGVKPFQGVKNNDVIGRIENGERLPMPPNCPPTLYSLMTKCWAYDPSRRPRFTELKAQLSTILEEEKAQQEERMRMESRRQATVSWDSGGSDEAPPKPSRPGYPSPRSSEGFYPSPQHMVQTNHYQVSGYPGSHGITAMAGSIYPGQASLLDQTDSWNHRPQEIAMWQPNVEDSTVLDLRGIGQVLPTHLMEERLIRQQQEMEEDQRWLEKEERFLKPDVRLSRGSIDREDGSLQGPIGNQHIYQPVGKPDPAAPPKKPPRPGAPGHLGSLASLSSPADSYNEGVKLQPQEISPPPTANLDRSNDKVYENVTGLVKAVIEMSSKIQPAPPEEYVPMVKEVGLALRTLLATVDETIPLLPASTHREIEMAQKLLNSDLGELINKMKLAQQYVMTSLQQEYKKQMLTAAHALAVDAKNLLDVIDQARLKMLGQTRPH
# T10 sequence (Q13418 whole entry): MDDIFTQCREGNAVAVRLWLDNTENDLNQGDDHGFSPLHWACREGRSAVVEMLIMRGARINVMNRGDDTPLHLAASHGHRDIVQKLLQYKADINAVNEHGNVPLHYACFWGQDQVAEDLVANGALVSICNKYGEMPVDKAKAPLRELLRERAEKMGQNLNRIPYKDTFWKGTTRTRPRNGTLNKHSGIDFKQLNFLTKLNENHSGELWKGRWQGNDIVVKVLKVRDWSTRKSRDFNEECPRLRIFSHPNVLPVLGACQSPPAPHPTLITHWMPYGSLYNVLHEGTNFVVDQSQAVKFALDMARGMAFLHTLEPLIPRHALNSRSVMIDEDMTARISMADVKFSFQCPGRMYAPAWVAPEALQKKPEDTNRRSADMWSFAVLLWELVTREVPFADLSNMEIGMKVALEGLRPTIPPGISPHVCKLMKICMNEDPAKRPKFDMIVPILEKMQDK
# T1 sequence (P50613 whole entry): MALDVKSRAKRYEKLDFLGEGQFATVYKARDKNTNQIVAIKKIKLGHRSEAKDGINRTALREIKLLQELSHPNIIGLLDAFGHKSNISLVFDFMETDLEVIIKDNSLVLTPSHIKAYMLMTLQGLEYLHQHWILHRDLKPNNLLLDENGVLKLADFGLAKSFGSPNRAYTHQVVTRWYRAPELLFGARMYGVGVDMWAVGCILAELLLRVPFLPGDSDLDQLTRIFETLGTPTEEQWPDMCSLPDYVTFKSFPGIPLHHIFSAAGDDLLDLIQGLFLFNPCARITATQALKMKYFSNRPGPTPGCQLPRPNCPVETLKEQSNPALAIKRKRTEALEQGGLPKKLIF
# T5 sequence (Q9UEE5 whole entry): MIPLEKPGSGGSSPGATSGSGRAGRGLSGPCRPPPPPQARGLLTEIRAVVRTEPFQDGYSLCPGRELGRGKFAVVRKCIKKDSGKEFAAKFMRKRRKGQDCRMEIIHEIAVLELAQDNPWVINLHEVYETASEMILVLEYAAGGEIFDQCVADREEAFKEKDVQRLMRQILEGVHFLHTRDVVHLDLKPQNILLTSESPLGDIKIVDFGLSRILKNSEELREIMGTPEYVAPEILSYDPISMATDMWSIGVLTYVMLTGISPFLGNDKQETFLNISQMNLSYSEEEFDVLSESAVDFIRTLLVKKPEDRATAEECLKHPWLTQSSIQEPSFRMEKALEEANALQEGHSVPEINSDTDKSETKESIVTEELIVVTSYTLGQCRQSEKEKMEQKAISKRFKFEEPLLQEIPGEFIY
smiles,measurement,setting,value
"Cn1cc(-c2cnc3ccc(NC(=O)Nc4ccc(F)c(C(F)(F)F)c4)cc3n2)cn1 [51-106, 1-(4-Fluoro-3-(trifluoromethyl)phenyl)-3-(3-(1-methyl-1H-pyrazol-4-yl)quinoxalin-6-yl)urea]",inhibition at 5 µM,"CDK7; Lys1, DKNTNQIVAIKK",16.6%
same,inhibition at 5 µM,"CDK7; Lys2, DLKPNNLLLDENGVLK",1.6%
same,inhibition at 5 µM,CK1a,11.1%
same,inhibition at 5 µM,CK1g3,11.5%
same,% Inhibition,"DNAPK; 5 µM, EHPFLVKGGEDLR",NB (NB = No Binding (≤ 0))
same,inhibition at 5 µM,DNAPK; […],≤ 0%
same,inhibition at 5 µM,DRAK1,≤ 0%
same,inhibition at 5 µM,EphB2,≤ 0%
same,inhibition at 5 µM,"FAK; ATP Loop, YMEDSTYYKASK",22.5%
same,inhibition at 5 µM,"FAK; Lys1, CIGEGQFGDVHQGIYMSPENPALAVAIKTCK",2.8%
same,inhibition at 5 µM,GSK3A,≤ 0%
same,inhibition at 5 µM,"HER2/ErbB2; ATP Loop, LLDIDETEYHADGGKVPIK",≤ 0%
same,inhibition at 5 µM,"HER2/ErbB2; Lys1, GIWIPDGENVKIPVAIKVLR",15.6%
same,% Inhibition,"IKKe, TBK1",10.6%
same,% Inhibition,"ILK; 5 µM, Protein Kinase Domain, ISMADVKFSFQCPGR",NB (NB = No Binding (≤ 0))
same,inhibition at 5 µM,"ILK; Lys1, […]",≤ 0%
same,inhibition at 5 µM,MAP2K5,3%
same,inhibition at 5 µM,MAP3K5,11.7%
same,inhibition at 5 µM,MAST3,≤ 0%
same,inhibition at 5 µM,NEK4,5.8%
same,inhibition at 5 µM,NLK,5.9%
same,inhibition at 5 µM,NuaK2,2.2%
same,inhibition at 5 µM,PCTAIRE1,≤ 0%
same,inhibition at 5 µM,PCTAIRE2,9.7%
same,inhibition at 5 µM,PHKg2,≤ 0%
same,inhibition at 5 µM,PIK3C2B,2.9%
same,% Inhibition,"PKD1, PKD2",NB (NB = No Binding (≤ 0))
same,inhibition at 5 µM,"PKR; ATP Loop, IGDFGLVTSLKNDGKR",≤ 0%
same,inhibition at 5 µM,"PKR; Lys2, DLKPSNIFLVDTK",18.7%
same,inhibition at 5 µM,PRP4,≤ 0%
same,inhibition at 5 µM,RON,≤ 0%
same,inhibition at 5 µM,"TLK2; Lys1, YVAVKIHQLNK",1.2%
same,inhibition at 5 µM,"TLK2; Lys2, YLNEIKPPIIHYDLKPGNILLVNGTACGEIK",1.7%
